According to US12180192B2, “Modulators of THR-β and methods of use thereof” (ALIGOS THERAPEUTICS, INC., priority 2019, dated 2024):
Read-outs that look alike come from different tables or passages of the source.

Key:
[1] = target: T1, human thyroid receptor beta ligand-binding domain (LBD) (Homo sapiens, UniProt P10828); assay: TR-FRET thyroid receptor beta coactivator assay (THR biochemical assay, Assay 1); conditions: for EC50: THR-beta, TR-FRET coactivator assay, read-out: Activity category Assay 1 (EC50, THR-beta agonist); for Emax: read-out: Activity category Assay 1 THRβ (Emax)
T1 construct: purchased Invitrogen
T1 sequence (P10828 217-461 limits assumed): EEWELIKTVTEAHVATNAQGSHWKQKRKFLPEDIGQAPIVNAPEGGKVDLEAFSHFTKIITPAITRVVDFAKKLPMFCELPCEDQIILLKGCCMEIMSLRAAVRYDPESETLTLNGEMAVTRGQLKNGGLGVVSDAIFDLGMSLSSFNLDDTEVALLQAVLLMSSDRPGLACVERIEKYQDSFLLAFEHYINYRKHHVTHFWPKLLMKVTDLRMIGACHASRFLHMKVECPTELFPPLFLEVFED
In short: (§1)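 GST-tagged human TRβ or TRα LBD, 1 nM final (stated for β), with fluorescein-SRC2-2 coactivator peptide (200 nM) and Tb-anti-GST antibody (2 nM). Agonists serially diluted, 1% DMSO final. 1 h incubation at rt in the dark; TR-FRET read as rise in fluorescein and drop in terbium emission.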

[2] = target: T2, human thyroid receptor alpha ligand-binding domain (LBD) (Homo sapiens, UniProt P10827); assay: TR-FRET thyroid receptor alpha coactivator assay (THR biochemical assay, Assay 1); conditions: for EC50: Table 4, THR-alpha, read-out: Activity category Assay 1 (EC50, THR-alpha agonist activity); for Emax: Table 5, THRα, read-out: Activity category Assay 1 THRα (Emax)
T2 construct: purchased Invitrogen
In short: as §1

THR beta = target: T3, THR beta (Homo sapiens, UniProt P10828); assay: HEK293T THR beta/RXR luciferase reporter assay (Assay 2); type: cell-based; conditions: for Emax: HEK-293T, read-out: Activity category Assay 2 THRβ (Emax); for EC50: THR-beta, HEK293T reporter assay, read-out: Activity category Assay 2 (EC50, THR-beta agonist)
T3 construct: expressed in transfected cells; host or cells: HEK293T (ATCC CRL-3216)
T3 sequence (P10828 1-461): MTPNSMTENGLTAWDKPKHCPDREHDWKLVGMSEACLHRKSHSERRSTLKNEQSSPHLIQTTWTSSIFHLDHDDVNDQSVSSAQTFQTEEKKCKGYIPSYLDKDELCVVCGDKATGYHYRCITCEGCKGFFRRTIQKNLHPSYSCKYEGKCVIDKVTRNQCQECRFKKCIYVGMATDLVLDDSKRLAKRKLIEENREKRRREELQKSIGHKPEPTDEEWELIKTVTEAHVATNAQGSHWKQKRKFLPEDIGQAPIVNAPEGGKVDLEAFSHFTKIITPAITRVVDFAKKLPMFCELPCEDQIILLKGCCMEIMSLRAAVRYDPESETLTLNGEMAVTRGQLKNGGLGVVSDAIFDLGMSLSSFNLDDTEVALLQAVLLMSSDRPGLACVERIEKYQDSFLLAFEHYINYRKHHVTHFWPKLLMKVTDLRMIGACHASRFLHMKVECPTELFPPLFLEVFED
T3 sequence (P19793 1-462 partner): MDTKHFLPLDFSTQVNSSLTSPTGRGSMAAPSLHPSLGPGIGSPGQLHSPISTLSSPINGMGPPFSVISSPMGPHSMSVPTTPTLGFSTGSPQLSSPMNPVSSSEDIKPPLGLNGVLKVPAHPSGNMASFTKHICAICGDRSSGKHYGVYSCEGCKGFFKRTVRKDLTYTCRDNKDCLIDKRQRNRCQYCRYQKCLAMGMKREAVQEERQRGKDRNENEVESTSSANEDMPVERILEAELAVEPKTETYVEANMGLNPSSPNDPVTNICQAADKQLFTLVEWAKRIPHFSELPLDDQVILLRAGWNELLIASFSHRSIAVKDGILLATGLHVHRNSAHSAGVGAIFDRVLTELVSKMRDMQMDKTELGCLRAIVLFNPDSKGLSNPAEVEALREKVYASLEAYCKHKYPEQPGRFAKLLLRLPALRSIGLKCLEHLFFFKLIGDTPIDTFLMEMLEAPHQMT
Protocol: (§2) HEK293T Reporter THRalpha/Beta/RXR Reporter Assay (Assay 2)
(§3) The purpose of this assay is to evaluate the effect of compounds on the thyroid hormone nuclear receptor pathway in HEK293T cells. To this end, HEK293T cells are transiently transfected with a luciferase reporter under the control of the thyroid response element (TRE), an RXR expression plasmid and either a THR alpha or THR beta expression plasmid. Transfected cells are stimulated with test compounds for 18-24 hours before activation of the thyroid hormone pathway is measured via a luciferase read-out.
(§4) Procedure. […] Ten five-fold dilutions of test compounds are prepared in DMSO and 30 nL are dispensed to the cells. […] Approximately 18-24 h after compound addition, 384 well plates are allowed to adjust to rt, 30 μL One-Glo (Promega catalog #E6120) is added to each well and luminescence is measured on a Perkin Elmer Enspire plate reader. Percent agonism is calculated using the following equation: 100× (sample-negative control)/(positive control-negative control).

THR alpha = target: T4, THR alpha (Homo sapiens, UniProt P10827); assay: HEK293T THR alpha/RXR luciferase reporter assay (Assay 2); type: cell-based; conditions: Assay 2; for Emax: HEK-293T, Table 5, THRα, read-out: Activity category Assay 2 THRα (Emax); for EC50: Table 4, THR-alpha, read-out: Activity category Assay 2 (EC50, THR-alpha agonist activity)
T4 construct: expressed in transfected cells; host or cells: HEK293T (ATCC CRL-3216)
T4 sequence (P10827 1-410 isoform P10827-2): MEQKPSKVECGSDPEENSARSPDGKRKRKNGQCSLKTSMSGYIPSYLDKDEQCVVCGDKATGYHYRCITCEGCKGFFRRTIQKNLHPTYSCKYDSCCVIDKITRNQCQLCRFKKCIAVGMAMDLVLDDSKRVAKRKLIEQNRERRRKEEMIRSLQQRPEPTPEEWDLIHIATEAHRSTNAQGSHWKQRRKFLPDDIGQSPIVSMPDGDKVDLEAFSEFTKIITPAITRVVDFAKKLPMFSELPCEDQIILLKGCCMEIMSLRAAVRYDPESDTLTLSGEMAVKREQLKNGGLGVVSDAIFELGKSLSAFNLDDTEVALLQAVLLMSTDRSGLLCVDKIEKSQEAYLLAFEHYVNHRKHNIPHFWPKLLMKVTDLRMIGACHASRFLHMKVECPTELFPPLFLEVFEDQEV
T4 sequence (P19793 1-462 partner): T3 sequence (P19793 1-462 partner)
Protocol: as §2, §3, §4

| Compound | EC50 [1] | Emax ([1]; Table 5, Assay 1, THRβ) | EC50 [2] | Emax [2] | Emax (THR beta; Table 5, Assay 2, THRβ) | EC50 (THR beta) | Emax (THR alpha) | EC50 (THR alpha) | Emax [1] | Emax (THR beta) |
| --- | --- | --- | --- | --- | --- | --- | --- | --- | --- | --- |
| Nc1nn(-c2cc(Cl)c(Oc3cc(Cc4ccccc4)c(=O)[nH]n3)c(Cl)c2)c(=O)[nH]c1=O [Compound 65, 6-amino-2-[4-[(5-benzyl-6-hydroxypyridazin-3-yl)oxy]-3,5-dichlorophenyl]-4H-1,2,4-triazine-3,5-dione] | < 50 nM | < 50% | 250 to 1000 nM | < 50% | > 75% | 50 to 250 nM | < 50% | 1000 to 10000 nM |  |  |
| Nc1nn(-c2cc(Cl)c(Oc3cc(C4CCOCC4)c(=O)[nH]n3)c(Cl)c2)c(=O)[nH]c1=O [Compound 59, 6-amino-2-(3,5-dichloro-4-[[5-(oxan-4-yl)-6-oxo-1H-pyridazin-3-yl]oxy]phenyl)-4H-1,2,4-triazine-3,5-dione] | 1000 to 25000 nM | < 50% | 1000 to 25000 nM | < 50% | > 75% | 1000 to 10000 nM | 50 to 75% | > 10000 nM |  |  |
| Nc1nn(-c2cc(Cl)c(Oc3cc(C(O)C4CCCC4)c(=O)[nH]n3)c(Cl)c2)c(=O)[nH]c1=O (centres unmarked) [Compound 77, 6-amino-2-[3,5-dichloro-4-([5-[cyclopentyl(hydroxy)methyl]-6-oxo-1H-pyridazin-3-yl]oxy)phenyl]-4H-1,2,4-triazine-3,5-dione] | 50 to 250 nM | < 50% | 250 to 1000 nM | 50 to 75% | > 75% | 50 to 250 nM | > 75% | 250 to 1000 nM |  |  |
| CC(C)c1cc(Oc2c(Cl)cc(-n3nc(N)c(=O)[nH]c3=O)cc2Br)n[nH]c1=O [Compound 80, 6-Amino-2-(3-bromo-5-chloro-4-((5-isopropyl-6-oxo-1,6-dihydropyridazin-3-yl)oxy)phenyl)-1,2,4-triazine-3,5(2H,4H)-dione] | < 50 nM | 50 to 75% | 50 to 250 nM | 50 to 75% | > 75% | < 50 nM | > 75% | 50 to 250 nM |  |  |
| CC(C)Cc1c[nH]c2ccc(Oc3c(Cl)cc(-n4nc(C#N)c(=O)[nH]c4=O)cc3Cl)cc12 [Compound 49, 2-(3,5-dichloro-4-[[3-(2-methylpropyl)-1H-indol-5-yl]oxy]phenyl)-3,5-dioxo-4H-1,2,4-triazine-6-carbonitrile] | < 50 nM | < 50% | < 50 nM | < 50% | > 75% | 250 to 1000 nM | < 50% | 250 to 1000 nM |  |  |
| COC(=O)c1c[nH]c2ccc(Oc3c(Cl)cc(-n4nc(C#N)c(=O)[nH]c4=O)cc3Cl)cc12 [Compound 4, methyl 5-[2,6-dichloro-4-(6-cyano-3,5-dioxo-4H-1,2,4-triazin-2-yl)phenoxy]-1H-indole-3-carboxylate] | < 50 nM |  | > 25000 nM | < 50% |  | 1000 to 10000 nM | 50 to 75% | > 10000 nM | < 50% | > 75% |
| Nc1nn(-c2cc(Cl)c(Oc3cc(C45CC(C4)C5)c(=O)[nH]n3)c(Cl)c2)c(=O)[nH]c1=O [Compound 95] | 50 to 250 nM | < 50% | 250 to 1000 nM | < 50% | > 75% | 50 to 250 nM | < 50% | 250 to 1000 nM |  |  |
| CC(C)c1cc(Oc2c(Cl)cc(-n3nc(N)c(=O)[nH]c3=O)c3c2CC3)n[nH]c1=O [Compound 79, 6-Amino-2-[4-chloro-5-[(5-isopropyl-6-oxo-1H-pyridazin-3-yl)oxy]-bicyclo[4.2.0]octa-1(6),2,4-trien-2-yl]-4H-1,2,4-triazine-3,5-dione] | 1000 to 25000 nM | 50 to 75% | 1000 to 25000 nM | < 50% | > 75% | > 10000 nM | 50 to 75% | 1000 to 10000 nM |  |  |

Second part, led by results:

| EC50 [1] | Emax ([1]; Table 5, Assay 1, THRβ) | EC50 [2] | Emax [2] | Emax (THR beta; Table 5, Assay 2, THRβ) | EC50 (THR beta) | Emax (THR alpha) | EC50 (THR alpha) | Compound | Emax [1] | Emax (THR beta) |
| --- | --- | --- | --- | --- | --- | --- | --- | --- | --- | --- |
| 250 to 1000 nM | < 50% | 1000 to 25000 nM | < 50% | < 50% | 1000 to 10000 nM | < 50% | > 10000 nM | Nc1nn(-c2cc(Cl)c(Oc3cc(C4CCC(F)(F)CC4)c(=O)[nH]n3)c(Cl)c2)c(=O)[nH]c1=O [Compound 97] |  |  |
| < 50 nM | < 50% | < 50 nM | < 50% | > 75% | 50 to 250 nM | > 75% | 250 to 1000 nM | CC(c1c[nH]c2ccc(Oc3c(Cl)cc(-n4nc(C#N)c(=O)[nH]c4=O)cc3Cl)cc12)C(F)(F)F (centres unmarked) [Compound 45, 2-(3,5-dichloro-4-[[3-(1,1,1-trifluoropropan-2-yl)-1H-indol-5-yl]oxy]phenyl)-3,5-dioxo-4H-1,2,4-triazine-6-carbonitrile] |  |  |
| < 50 nM | < 50% | < 50 nM | < 50% | > 75% | 1000 to 10000 nM | > 75% | 1000 to 10000 nM | N#Cc1nn(-c2cc(Cl)c(Oc3ccc4[nH]ccc4c3)c(Cl)c2)c(=O)[nH]c1=O [Compound 47, 2-[3,5-dichloro-4-(1H-indol-5-yloxy)phenyl]-3,5-dioxo-4H-1,2,4-triazine-6-carbonitrile] |  |  |
| 1000 to 25000 nM | < 50% | > 25000 nM | < 50% | < 50% | 1000 to 10000 nM | < 50% | > 10000 nM | CO[C@H]1C[C@@H](c2cc(Oc3c(Cl)cc(-n4nc(N)c(=O)[nH]c4=O)cc3Cl)n[nH]c2=O)C1 [Compound 103] |  |  |
| 250 to 1000 nM | < 50% | 1000 to 25000 nM | < 50% | 50 to 75% | 1000 to 10000 nM | < 50% | 1000 to 10000 nM | Nc1nn(-c2cc(Cl)c(Oc3cc(C4CC(F)(F)C4)c(=O)[nH]n3)c(Cl)c2)c(=O)[nH]c1=O [Compound 106] |  |  |
